{
  "source": "paper PMC6128917",
  "about": "“Implications for the impairment of the rapid channel closing of Proteomonas sulcata anion channelrhodopsin 1 at high Cl^− concentrations” (Scientific Reports, 2018)",
  "target": "T1, PsuACR1 (PsACR1)",
  "T1 construct": "291 residues plus C-terminal His8 kept (299 residues in total)",
  "test": "UV-visible absorption titration, λmax red-shift fitted with Hill equation (n = […] fixed)",
  "format": "binding, Proteomonas sulcata",
  "conditions": "10 mM MOPS pH 7.0, 25 °C; ionic strength kept at 1,000 mM with Na2SO4; initial (unphotolysed) state",
  "data": [
    {"smiles": "Cl", "note": "[Cl^−]", "values": [
      {"measurement": "Kd", "value": "5.5 ± 1.6", "unit": "mM"}
    ]}
  ]
}
